According to patent US20230096028A1, “BICYCLIC HETEROCYCLYL COMPOUNDS AND USES THEREOF” (Revolution Medicines, Inc., priority 2019, published 2023):

Tests used:
[1] = system: PC-9 cells (EGFR Ex19Del); assay: Potency Assay: pERK (SOS1 pERK IC50 Assay, AlphaLISA SureFire Ultra p-ERK1/2); assay type: cell-based; settings: Homo sapiens; PC-9 cells (EGFR Ex19Del), 1 hour incubation, AlphaLISA p-ERK1/2; read-out: SOS1 pERK IC50
Outline: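 PC-9 (EGFR Ex19Del) cells plated overnight, then treated 1 h at 37° C. with 10-point 3-fold dilutions (top 10 μM final) in duplicate. Lysate pERK1/2 measured by AlphaLISA SureFire Ultra; IC50 from 4-parameter sigmoidal fit.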

[2] = biological target: T1, SOS1 catalytic domain (residues 564-1049) (Homo sapiens, UniProt Q07889); assay: Potency Assay: binding affinity to SOS1 using Surface Plasmon Resonance (SPR); design: SOS1 catalytic domain (residues 564-1049) immobilized on a sensor chip; settings: immobilized SOS1 catalytic domain (residues 564-1049), read-out: SOS1 SPR Equilibrium Kd
T1 sequence (Q07889 564-1049): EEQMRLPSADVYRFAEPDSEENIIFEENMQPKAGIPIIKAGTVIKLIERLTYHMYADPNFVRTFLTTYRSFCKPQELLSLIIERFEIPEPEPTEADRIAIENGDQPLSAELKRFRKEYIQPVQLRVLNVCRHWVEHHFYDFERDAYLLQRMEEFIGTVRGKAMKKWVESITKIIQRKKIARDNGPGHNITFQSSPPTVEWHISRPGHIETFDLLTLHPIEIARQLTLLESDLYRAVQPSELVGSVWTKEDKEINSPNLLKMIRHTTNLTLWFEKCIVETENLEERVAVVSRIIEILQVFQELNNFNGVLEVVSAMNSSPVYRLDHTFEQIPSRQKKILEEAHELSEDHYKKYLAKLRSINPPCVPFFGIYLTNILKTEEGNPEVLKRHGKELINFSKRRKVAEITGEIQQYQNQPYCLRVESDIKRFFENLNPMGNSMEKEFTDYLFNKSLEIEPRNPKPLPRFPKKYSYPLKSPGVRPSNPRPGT
Outline: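 Avi-tagged SOS1 catalytic domain captured on streptavidin chip (~6000 RU) in 0.01 M HEPES, 0.15 M NaCl, 0.05% P20. Compound dilution series flowed at 50 μL/min for association, then buffer for dissociation, with double reference subtraction. Kd derived from end-of-association binding response plotted against concentration.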

[3] = biological target: T1, SOS1 catalytic domain (residues 564-1049); assay: Mode of Action Assay: inhibition of SOS1 nucleotide exchange activity (SOS1 TR-FRET IC50 Assay)

SMILES	IC50 [1] [nM]	Kd [2] [nM]	IC50 [3] [nM]
C[C@@H](Nc1nc(Cl)nc2c1CN(C(=O)C1(C#N)CCN(C)CC1)C2)c1cccc(C(F)F)c1F [Example 299]	< 1000	< 400	< 1000
C[C@@H](Nc1nc(Cl)nc2c1CN(C(=O)N1C[C@H]3COC[C@H]3C1)C2)c1cccc(C(F)F)c1F [Example 410]	< 1000	< 400	< 1000
C[C@@H](Nc1nc(Cl)nc2c1CN(C(=O)C13CCN(CC1)CC3)C2)c1cccc(C(F)F)c1F [Example 313]	< 1000	< 400	< 1000
C[C@@H](Nc1nc(Cl)nc2c1CN(C(=O)N1CCOCC1)C2)c1cccc(C(F)(F)C2CN(C)CCO2)c1 (stereo partly drawn) [Example 485, 2-chloro-N-[(1R)-1-{3-[difluoro(4-methylmorpholin-2-yl)methyl]phenyl}ethyl]-6-(morpholine-4-carbonyl)-5H,6H,7H-pyrrolo[3,4-d]pyrimidin-4-amine]	< 1000	< 400	< 1000
COC1(C(=O)N2Cc3nc(Cl)nc(N[C@H](C)c4cccc(C(F)F)c4F)c3C2)CCN(CC(F)(F)F)CC1 [Example 344]	< 1000	< 400	< 1000
C[C@@H](Nc1nc(Cl)nc2c1CN(C(=O)N1CCN(C)CC1)C2)c1cccc(C(F)(F)CO)c1 [Example 355]	> 1000	< 400	< 1000
COC1(C(=O)N2Cc3nc(Cl)nc(N[C@H](C)c4cc(N)cc(C(F)(F)F)c4)c3C2)CCOCC1 [Example 93]	< 1000	< 400	< 1000
COC1(C(=O)N2Cc3nc(Cl)nc(N[C@H](C)c4cccc(C(F)(F)CO)c4)c3C2)CCOCC1 [Example 167, [2-chloro-4-[[(1R)-1-[3-(1,1-difluoro-2-hydroxy-ethyl)phenyl]ethyl]amino]-5,7-dihydropyrrolo[3,4-d]pyrimidin-6-yl]-(4-methoxytetrahydropyran-4-yl)methanone]	< 1000	< 400	< 1000
C[C@@H](Nc1ncnc2c1CC(N1CC3(COC3)C1)CC2)c1cccc(C(F)(F)CO)c1 (stereo partly drawn) [Example 439]	< 1000	< 400	< 1000
C[C@@H](Nc1ncnc2c1CC(N1CC3(COC3)C1)CC2)c1cccc(C(F)F)c1F (stereo partly drawn) [Example 442]	> 1000	< 400	< 1000
Cc1c(C(F)F)cccc1[C@@H](C)Nc1nc(Cl)nc2c1CN(C(=O)N1CCOCC1)C2 [Example 492]	< 1000	< 400	< 1000
C[C@@H](Nc1nc(Cl)nc2c1CN(C(=O)N1CCC3(CCN3)CC1)C2)c1cccc(C(F)F)c1F [Example 390]	< 1000	< 400	< 1000
C[C@@H](Nc1nc(Cl)nc2c1CN(C(=O)c1cnccn1)CC2)c1cc(N)cc(C(F)(F)F)c1 [Example 246]	> 1000	> 400	> 1000
C[C@@H](Nc1nc(Cl)nc2c1CN(C(=O)N1CC3CNCC(C1)O3)C2)c1cccc(C(F)F)c1F [Example 398]	> 1000	< 400	< 1000
C[C@@H](Nc1nc(Cl)nc2c1CN(C(=O)N1CCCNCC1)C2)c1cccc(C(F)(F)F)c1 [Example 377]	< 1000	< 400	< 1000
C[C@@H](Nc1nc(Cl)nc2c1CN(C(=O)CC1COCCN1)C2)c1cccc(C(F)F)c1F (stereo partly drawn) [Example 291]	< 1000	> 400	< 1000
C[C@@H](Nc1nc(OC(F)(F)F)nc2c1CN(C(=O)N1CCOCC1)C2)c1cc(N)cc(C(F)(F)F)c1 [Example 126, N-[(1R)-1-[3-amino-5-(trifluoro-methyl)phenyl]ethyl]-6-(morpholine-4-carbonyl)-2-(trifluoro-methoxy)-5H,6H,7H-pyrrolo-[3,4-d]pyrimidin-4-amine]	< 1000	> 400	> 1000
C[C@@H](Nc1nc(Cl)nc2c1CN(C(=O)N1C3COCC1COC3)C2)c1cccc(C(F)F)c1F [Example 409]	< 1000	< 400	< 1000
C[C@@H](Nc1nc(Cl)nc2c1CN(C(=O)N1C[C@H]3CNC[C@H]3C1)C2)c1cccc(C(F)(F)F)c1 [Example 380]	> 1000	< 400	< 1000

Other lines, results leading:

IC50 [1] [nM]	Kd [2] [nM]	IC50 [3] [nM]	SMILES
< 1000	< 400	< 1000	COC1(C(=O)N2Cc3nc(Cl)nc(N[C@H](C)c4cccc(C(F)F)c4F)c3C2)COC1 [Example 489]
< 1000	< 400	< 1000	C[C@@H](Nc1nc(Cl)nc2c1CN(C(=O)c1ncccc1C(F)(F)F)C2)c1cc(N)cc(C(F)(F)F)c1 [Example 86]
< 1000	< 400	< 1000	C[C@@H](Nc1nc(Cl)nc2c1CN(C(=O)N1CCOCC1)C2)c1cccc(C(F)(F)CO)c1 [Example 168, [2-chloro-4-[[(1R)-1-[3-(1,1-difluoro-2-hydroxy-ethyl)phenyl]ethyl]amino]-5,7-dihydropyrrolo[3,4-d]pyrimidin-6-yl]-morpholino-methanone]
< 1000	< 400	< 1000	C[C@@H](Nc1nc(Cl)nc2c1CN(C(=O)N1CCNC(C(F)(F)F)C1)C2)c1cccc(C(F)(F)F)c1 (stereo partly drawn) [Example 363]
< 1000	< 400	< 1000	C[C@@H](Nc1nc(Cl)nc2c1CN(C(=O)C1COCCN(C)C1)C2)c1cccc(C(F)F)c1F (stereo partly drawn) [Example 320]
< 1000	> 400	> 1000	C[C@@H](Nc1nc(Cl)nc2c1CN(C(=O)c1ncccn1)C2)c1cc(N)cc(C(F)(F)F)c1 [Example 70]
< 1000	< 400	< 1000	COC1CCN(S(=O)(=O)N2CCc3nc(Cl)nc(N[C@H](C)c4cc(N)cc(C(F)(F)F)c4)c3C2)CC1 [Example 179]
< 1000	< 400	< 1000	CC(C)N1CC(C)(C(=O)N2Cc3nc(Cl)nc(N[C@H](C)c4cccc(C(F)F)c4F)c3C2)C1 [Example 338]
> 1000	< 400	> 1000	CNCc1ccccc1-c1cnc(C(C)Nc2nc(Cl)nc3c2CN(C(=O)N2CCOCC2)C3)s1 (stereo not drawn) [Example 31]
< 1000	< 400	< 1000	C[C@@H](Nc1nc(Cl)nc2c1CN(C(=O)C1(C#N)CCOCC1)C2)c1cc(N)cc(C(F)(F)F)c1 [Example 255]
< 1000	< 400	< 1000	C[C@@H]1CN(C(=O)N2Cc3nc(Cl)nc(N[C@H](C)c4cc(N)cc(C(F)(F)F)c4)c3C2)C[C@H](C)N1 [Example 146]
> 1000	> 400	> 1000	Cc1nc2c(c(N[C@H](C)c3cc(N)cc(C(F)(F)F)c3)n1)CN(S(=O)(=O)c1ccc(N)nc1)C2 [Example 36, (R)—N-(1-(3-amino-5-(trifluoromethyl)phenyl)ethyl)-6-((6-aminopyridin-3-yl)sulfonyl)-2-methyl-6,7-dihydro-5H-pyrrolo[3,4-d]pyrimidin-4-amine]
< 1000	< 400	< 1000	C[C@@H](Nc1nc(Cl)nc2c1CN(C(=O)N1CCNCC1)C2)c1cccc(C(F)F)c1F [Example 407]
